# How the values were obtained:
# [1] = Selectivity for Gli over Gli2
# [2] = system: PANC-1; experiment: Selectivity for human PANC1 cells over mouse C3H10/T1/2 cells
# [3] = Growth inhibition of human L3.6p1 cells; assay type: functional
# [4] = Growth inhibition of human Panc 05.04 cells; assay type: functional
# [5] = system: BXPC-3; experiment: Growth inhibition of human BxPC3 cells; assay type: functional
# [6] = Growth inhibition of human D283 MED cells; assay type: functional
# [7] = system: Daoy; experiment: Growth inhibition of human DaOY cells; assay type: functional
# [8] = In vivo antitumor activity against human L3.6s1 cells assessed as inhibition of tumor growth; assay type: functional
# [9] = system: BXPC-3; experiment: In vivo antitumor activity against human BxPC3 cells assessed as inhibition of tumor growth; assay type: functional
# [10] = target: T1, Zinc finger protein GLI1 (Homo sapiens, UniProt P08151); experiment: Inhibition of Gli1-mediated transcription expressed in human PANC1 cells; assay type: cell-based; settings: panc-1
# T1 sequence (P08151 whole entry): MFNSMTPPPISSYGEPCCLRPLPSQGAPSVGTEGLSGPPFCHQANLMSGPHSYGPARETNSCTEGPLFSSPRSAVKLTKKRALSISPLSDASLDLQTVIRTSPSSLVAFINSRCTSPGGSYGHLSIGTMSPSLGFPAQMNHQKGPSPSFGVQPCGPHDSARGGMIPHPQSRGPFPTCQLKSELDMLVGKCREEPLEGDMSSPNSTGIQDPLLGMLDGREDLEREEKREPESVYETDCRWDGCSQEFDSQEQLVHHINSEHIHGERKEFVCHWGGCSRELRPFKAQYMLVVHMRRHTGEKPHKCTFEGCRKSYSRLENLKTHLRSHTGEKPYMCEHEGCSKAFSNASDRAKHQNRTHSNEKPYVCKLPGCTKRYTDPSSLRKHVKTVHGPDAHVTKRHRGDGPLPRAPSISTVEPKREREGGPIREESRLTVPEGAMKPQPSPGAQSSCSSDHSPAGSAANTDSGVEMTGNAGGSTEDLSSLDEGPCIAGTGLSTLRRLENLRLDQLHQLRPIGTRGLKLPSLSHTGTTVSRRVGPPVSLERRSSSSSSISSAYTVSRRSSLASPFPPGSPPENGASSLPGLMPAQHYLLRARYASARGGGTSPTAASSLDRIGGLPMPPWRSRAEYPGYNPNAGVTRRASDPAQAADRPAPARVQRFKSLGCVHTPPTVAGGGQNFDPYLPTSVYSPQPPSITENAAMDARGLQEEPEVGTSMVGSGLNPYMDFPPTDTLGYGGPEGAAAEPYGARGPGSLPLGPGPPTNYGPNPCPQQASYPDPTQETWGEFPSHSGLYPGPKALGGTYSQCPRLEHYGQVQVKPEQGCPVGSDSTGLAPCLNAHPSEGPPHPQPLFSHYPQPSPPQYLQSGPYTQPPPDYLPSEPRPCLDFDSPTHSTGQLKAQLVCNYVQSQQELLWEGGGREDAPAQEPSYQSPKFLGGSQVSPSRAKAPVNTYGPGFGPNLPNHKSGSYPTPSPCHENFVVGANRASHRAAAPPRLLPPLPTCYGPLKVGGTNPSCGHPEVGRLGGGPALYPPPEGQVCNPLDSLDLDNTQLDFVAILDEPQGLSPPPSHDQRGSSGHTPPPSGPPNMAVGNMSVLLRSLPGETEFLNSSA
# [11] = system: Mus musculus; experiment: Antitumor activity against transgenic mouse medulloblastoma model with loss of function mutations in Ptch1 and Hic1 gene administered as once daily oral dose; assay type: functional
# [12] = Antitumor activity against human medulloblastoma cells; assay type: functional; settings: Medulloblastoma cell
smiles,measurement,setting,value
C[C@]12C(=O)C=CCC1=CC[C@@H]1[C@@H]2CC[C@]2(O)C(=O)O[C@@]3(C)[C@H]4C[C@]5(C)[C@@H](CO[C@@]16O[C@@]32[C@H]5C6=O)C(=O)O4 [PHYSALIN B],Ratio IC50,[1],2
same,Selectivity Index,[2],3
O=C1NCc2c1c1c3ccccc3[nH]c1c1[nH]c3ccccc3c21 [STAUROSPORINONE],Selectivity Index,[2],3
CCOc1ccc(Nc2nc(-c3c(C)nc4ccccn34)cs2)cc1,GI50,[3],3 nM
same,GI50,[4],3 nM
same,GI50,[5],3 nM
same,GI50,[6],3 nM
same,GI50,[7],3 nM
same,inhibition (INH),[8],30%
same,inhibition (INH),[9],30%
C=C(C)[C@@H]1CC[C@]2(C(=O)O)CC[C@]3(C)[C@H](CC[C@@H]4[C@@]5(C)[C@H](C=O)[C@@H](O)C(C)(C)[C@@H]5CC[C@]43C)[C@@H]12 [COLUBRINIC ACID],IC50,[10],38000 nM
C=C(C)[C@@H]1CC[C@]2(C(=O)O)CC[C@]3(C)[C@H](CC[C@@H]4[C@@]5(C)C[C@@H](O)[C@H](O)C(C)(C)[C@@H]5CC[C@]43C)[C@@H]12 [ALPHITOLIC ACID],IC50,[10],42000 nM
C[C@@]12C[C@H]3OC(=O)[C@@H]1CO[C@]14O[C@]5([C@H]2C1=O)[C@@](O)(CC[C@H]1[C@H]4C[C@H]2O[C@]24CC=CC(=O)[C@]14C)C(=O)O[C@@]35C [PHYSALIN F],Ratio IC50,[1],2
same,Selectivity Index,[2],3
CC1=C2C[C@H]3[C@@H](CC[C@@H]4CNC(=O)CC[C@@]43C)[C@@H]2CC[C@@]2(C1)O[C@@H]1C[C@H](C)CN[C@H]1[C@H]2C,ED50,[11],< 7.5 mg/kg
COc1cc(OC)cc(C(=O)Nc2ccc(Cl)c(-c3nc4cc(N(C)C)ccc4[nH]3)c2)c1,IC50,[12],10000 nM
C=C(C)[C@@H]1CC[C@]2(C(=O)O)CC[C@]3(C)[C@H](CC[C@@H]4[C@@]5(C)CC[C@H](O)C(C)(C)[C@@H]5CC[C@]43C)[C@@H]12 [BETULINIC ACID],IC50,[10],32000 nM

# — ChEMBL document CHEMBL1138588, “Hedgehog-Gli signaling pathway inhibitors as anticancer agents” (J Med Chem, 2009)
